Source: PMC8615111, “Phenolic Thiazoles with Antioxidant and Antiradical Activity. Synthesis, In Vitro Evaluation, Toxicity, Electrochemical Behavior, Quantum Studies and Antimicrobial Screening” (Antioxidants, 2021)

What was measured:
Fe^2+ chelation assay = type: biochemical
Method: The protocol used for assessing Fe^2+ chelating capacity of the compounds was adapted from a report of Benzie and Strain and previously reported by our group. The iron(II) chelation ability of compounds was calculated using Equation (7):(7) iron chelation (%)=control absorbance−sample absorbance/control absorbance×100
The chelating potential for the ferrous ions of the new compounds was determined, based on their competition for Fe^2+ with ferrozine.

[1] = TEMPO scavenging by differential pulse voltammetry; details: 2 mM TEMPO, one hour incubation, 0.1 M HClO4, DPV
Method: (§1) The antioxidant properties were evaluated in terms of their activity against some free radicals, and other compounds reported in the literature, relevant for this purpose, such as: • ferric ions (Fe^3+)—used to test the reduction of the antioxidant character of the compounds; • DPPH˙ free radical– used to test the scavenging effect of the compounds on this radical; • hydrogen peroxide (H2O2)—used to test the scavenging effect of the synthesized molecules on this compound; • 2,2,6,6-tetramethylpiperidinyl-1-oxy (TEMPO)—used to test the scavenging effect of the synthesized molecules on this compound.
TEMPO (2,2,6,6-tetramethylpiperidine-N-oxyl) is a stable organic nitroxide radical that has been reported to scavenge carbon-centered radicals.
Differential pulse voltammetry (DPV) was then applied in order to evaluate the antioxidant effectiveness of the novel compounds through their ability to scavenge the free radical species.

[2] = NO˙ radical scavenging assay (Griess reaction); type: biochemical; details: 100 µL of test solution 1 mg/mL in DMSO, 150 min, pH 7.4
Method: Scavenging of the NO˙ radical was performed according to some adapted protocols reported in the literature, based on the nitroprusside decomposition at physiological pH and colorimetric quantification of the resulted products using the Griess reaction.
Over 200 µL of 10 mM sodium nitroprusside, 100 µL of test solutions (1 mg/mL in DMSO), and 400 µL phosphate-buffered saline (PBS, pH = 7.4) were added. The mixture was then incubated at room temperature for 150 min on a rotating shaker (GFL Gesellschaft für Labortechnik, Burgwedel, Germany). After that, 1 mL of sulfanilic acid 0.33% in 20% acetic acid was added and after 5 min, 1 mL of naphthylethylenediamine […] 0.1% was added to all test tubes. After 30 min, the absorbance of the sample, given by the chromophore (azo dye) formed during the diazotization of nitrite ions resulting from decomposition of sodium nitroprusside with sulfanilic acid and coupled with naphthylethylenediamine, was measured at 546 nm. The NO˙ radical scavenging activity of the tested compounds was calculated using Equation (3):(3) NO˙ scavenging (%)=control absorbance−sample absorbance/control absorbance×100

[3] = Cyclic voltammetry of the compounds on graphite-based SPE; type: physicochemical; details: CV, 0.1 M HClO4, graphite-based SPE
Method: (§2) The evaluated compounds’ stock solutions used were prepared at a concentration of 5 mM. To test their redox properties, dilutions of 0.5 mM and 2 mM were prepared in 0.1 M HClO4 electrolyte (pH = 1.2). Screen-printed electrodes (SPEs; Metrohm DropSens, Oviedo, Spain) (planar electrodes) with graphite and gold working electrodes were used. Cyclic voltammetry (CV) and differential pulse voltammetry (DPV) were the electrochemical methods applied. The experimental conditions for each test are mentioned near the corresponding data (Appendix A).
In Figure 2, the cyclic voltammograms (CVs) for each of the compounds considered in this study, compared individually with the voltammogram obtained in the electrolyte (0.1 M HClO4), are presented. Thus, the oxidation/reduction peaks corresponding to the electrochemical transformations suffered by each compound can be observed in the potential range considered, in an acidic environment (low pH). From Figure 3, where the voltammograms of all eight compounds were presented together, a similarity is observed between 8a and 8b, and among the other compounds, whereas 5a and 5b can be noted as having the highest oxidation signals.

[4] = Ferric ions (Fe^3+) reducing antioxidant power by cyclic voltammetry; details: for Ered (V): 1st Ered; for Ired (μA): 1st Ired
Method: as §2, §1
This method is based on the evaluation of the influence of the compound measured by the direct reduction of Fe[(CN)6]^3− to […]. This assay is based on the reduction of Fe^3+ to Fe^2+ due to the action of antioxidants. Based on the electrochemical behavior of the studied compounds, the interaction of Fe^3+ was followed by cyclic voltammetry (CV) via the possible changes of redox peaks characteristic for Fe^3+/Fe^2+ transition after the interaction with antioxidants (if any).
From the voltammogram of potassium ferricyanide it can be observed that the one-electron transfer process Fe^3+/Fe^2+ occurs at 0.247 V/ 0.150 V in acidic media (red) (Figure A1; Table A1).
Each compound presents its characteristic peaks (blue line in each figure).

C. albicans ATCC 102310 = test: Antifungal activity, modified microdilution; type: cell-based; details: Candida albicans, ATCC102310
Method: For evaluating the antimicrobial activity of the compounds, […] aerobic microbial strains were used: S. aureus ATCC 25923, S. pyogenes ATCC 19615, P. aeruginosa ATCC 27853, S. enterica ISM 83/37, S. typhimurium ATCC 14028, E. coli ATCC 8739, E. coli ATCC 25922, and C. albicans ATCC 102310 obtained from Food Biotechnology Laboratory, Life Sciences Institute, University of Agricultural Sciences, and Veterinary Medicine Cluj Napoca, where the experiment was performed. The antimicrobial activity of the compounds was determined using a modified microdilution technique, and the followed protocol was previously reported.
The antimicrobial activity of the final compounds, against seven aerobic microbial strains (S. aureus ATCC 25923, S. pyogenes ATCC 19615, P. aeruginosa ATCC 27853, S. enterica ISM 83/37, S. typhimurium ATCC 14028, E. coli ATCC 8739, E. coli ATCC 25922), and a fungal strain (C. albicans ATCC 102310), was determined using a modified microdilution technique.
The results of the antimicrobial activity evaluation of the compounds, in comparison to norfloxacin and chloramphenicol used as standard antibiotics and fluconazole used as reference antifungal, are depicted in Table 10.

[5] = compound 0.5 mM + Fe^3+/Fe^2+ (0.5 mM potassium ferricyanide), 1st Eox column
[6] = compound 0.5 mM + Fe^3+/Fe^2+ (0.5 mM potassium ferricyanide), 1st Iox column
[7] = compound + Fe^3+/Fe^2+, 2nd Eox
[8] = compound + Fe^3+/Fe^2+, 2nd Iox column
[9] = compound + Fe^3+/Fe^2+, 5th Eox
[10] = compound + Fe^3+/Fe^2+, 5th Iox column
[11] = compound alone 0.5 mM in 0.1 M HClO4, 2nd Eox
[12] = compound alone 0.5 mM in 0.1 M HClO4, 2nd Iox column
[13] = compound alone 0.5 mM in 0.1 M HClO4, 5th Eox
[14] = compound alone 0.5 mM in 0.1 M HClO4, 5th Iox column

SMILES | Chelation Capacity (%), ferrous ions (Fe^2+ chelation assay; 50 µg/mL) [%] | Chelation Capacity (%), ferrous ions (Fe^2+ chelation assay; 100 µg/mL) [%] | Chelation Capacity (%), ferrous ions (Fe^2+ chelation assay; 150 µg/mL) [%] | Chelation Capacity (%), ferrous ions (Fe^2+ chelation assay; 200 µg/mL) [%] | oxidation signal for TEMPO after incubation with the compound [1] | % of NO˙ Scavenged [2] [%] | Eox (V) ([3]; 1st oxidation peak) | Iox (μA) ([3]; 1st oxidation peak) | Ired (μA) ([3]; 1st reduction peak) | Eox (V) ([3]; 2nd oxidation peak) | Iox (μA) ([3]; 2nd oxidation peak) | Ered (V) ([3]; 2nd reduction peak) | Ired (μA) ([3]; 2nd reduction peak) | Ired (μA) ([3]; 3rd reduction peak) | Ered (V) ([4]; compound + Fe^3+/Fe^2+) | Ired (μA) ([4]; compound + Fe^3+/Fe^2+) | Eox (V) [4, 7] [V] | Iox (μA) [4, 8] [μA] | Iox (μA) [4, 12] [μA] | MIC (C. albicans ATCC 102310) [µg/mL] | other results
Br.Oc1ccc(/C=N/Nc2nc(-c3ccccc3)cs2)c(O)c1 [Compound 6b, (E)-2-(2,4-dihydroxybenzylidene)-1-(4-phenylthiazol-2-yl)hydrazin-1-ium bromide] | 0.07 | 4.84 | 13.39 | 22.27 | does not decrease | 28.35 | 0.296 | 5.28 | −2.22 | 0.467 | 44.99 | 0.070 | −1.49 | −5.91 | 0.149 | −8.26 | 0.325 | 44.78 | 37.55 | 62.5 | Ered (V) ([3]; 1st reduction peak): −0.08 V; Ered (V) ([3]; 3rd reduction peak): 0.401 V; Eox (V) [4, 5]: 0.203 V; Iox (μA) [4, 6]: 2.48 μA; Eox (V) [4, 9]: 0.879 V; Iox (μA) [4, 10]: 21.84 μA; Eox (V) [4, 11]: 0.386 V; Eox (V) [4, 13]: 0.894 V; Iox (μA) [4, 14]: 8.86 μA
Br.C/C(=N\Nc1nc(-c2ccc(O)c(C(N)=O)c2)cs1)c1ccc(O)cc1O [Compound 7a, (E)-1-(4-(3-carbamoyl-4-hydroxyphenyl)thiazol-2-yl)-2-(1-(2,4-dihydroxyphenyl)ethylidene)hydrazin-1-ium bromide] | 0.07 | 1.73 | 2.29 | 3.88 | does not decrease | 21.44 | 0.269 | 14.75 | – | 0.374 | 2.06 | 0.205 | −4.65 | – | 0.164 | −7.23 | 0.23 | 4.35 | 4.37 | > 100 | Eox (V) ([3]; 3rd oxidation peak): 0.561 V; Iox (μA) ([3]; 3rd oxidation peak): 2.69 μA; Iox (μA) ([4]; compound + Fe^3+/Fe^2+, 3rd Iox column): 1.75 μA; Iox (μA) ([4]; compound alone 0.5 mM in 0.1 M HClO4, 3rd Iox column): 1.95 μA
Br.NC(=O)c1cc(-c2csc(N/N=C/c3ccc(O)cc3O)n2)ccc1O [Compound 7b, (E)-1-(4-(3-carbamoyl-4-hydroxyphenyl)thiazol-2-yl)-2-(2,4-dihydroxybenzylidene) hydrazin-1-ium bromide] | 0.07 | 3.44 | 9.13 | 16.28 | does not decrease | 26.33 | 0.267 | 13.22 | −0.119 | 0.412 | 15.78 | – | 0.078 | 0.201 | 0.161 | −6.8 | 0.305 | 6.08 | 2.07 | > 100 | Eox (V) ([3]; 3rd oxidation peak): 0.543 V; Iox (μA) ([3]; 3rd oxidation peak): 6.385 μA; Eox (V) [4, 5]: 0.205 V; Iox (μA) [4, 6]: 1.39 μA; Eox (V) [4, 9]: 0.926 V; Iox (μA) [4, 10]: 6.34 μA; Eox (V) [4, 11]: 0.347 V; Eox (V) [4, 13]: 1.065 V; Iox (μA) [4, 14]: 2.64 μA
